# Target: T1, farnesol X receptor (FXR) (Homo sapiens, UniProt Q96RI1)
# T1 construct: endogenous in cells; host or cells: HepG2
# T1 sequence (Q96RI1 1-486): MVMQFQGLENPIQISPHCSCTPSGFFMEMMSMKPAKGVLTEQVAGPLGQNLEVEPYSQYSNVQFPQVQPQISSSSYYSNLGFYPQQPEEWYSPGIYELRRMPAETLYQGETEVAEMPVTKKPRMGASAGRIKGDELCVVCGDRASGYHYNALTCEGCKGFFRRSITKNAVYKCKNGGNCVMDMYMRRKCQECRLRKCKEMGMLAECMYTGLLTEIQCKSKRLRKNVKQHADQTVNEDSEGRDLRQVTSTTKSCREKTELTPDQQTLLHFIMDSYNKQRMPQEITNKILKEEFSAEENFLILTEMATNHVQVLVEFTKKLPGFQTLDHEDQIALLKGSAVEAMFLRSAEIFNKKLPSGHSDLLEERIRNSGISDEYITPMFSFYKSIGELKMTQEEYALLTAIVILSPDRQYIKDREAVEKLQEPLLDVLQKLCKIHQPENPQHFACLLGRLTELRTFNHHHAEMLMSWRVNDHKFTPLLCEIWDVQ
# Assay: Farnesol X receptor (FXR) reporter gene assay (dual luciferase) in HepG2 cells
# Type: cell-based
# Settings: dose 10 uM; HepG2 cells, drug treatment 24 hours; firefly/renilla luciferase ratio, Con = 1.00
# Method: HepG2 cells were purchased from ATCC (Manassas, VA, USA) and cultured in Dulbecco's modified Eagle's medium (DMEM; Hyclone) containing 10% fetal bovine serum (FBS, Hyclone, Logan, UT, USA), 50 units/mL penicillin (Hyclone) and 50 μg/mL streptomycin (Hyclone). All cells were cultured to have a confluency of about 80% to 90% under the conditions of 37° C. and 5% Co2.
# In order to measure FXR transcription factor activity, HepG2 cells (1×10^5 cells/well) were cultured in a 48-well cell culture plate (SPL Life Science Co., Gyeonggido, Korea) for 20 hours and then transduced using Lipofectamin L3000 (Invitrogen, San Diego, CA, USA). Luciferase is an enzyme that catalyzes light-emitting reactions. A plasmid in which the firefly luciferase gene was fused to farnesol X receptor (FXR) and a plasmid in which the renilla luciferase gene was fused to thymidine kinase (TK) were used for transduction. Reacted were 25 μL of serum and antibiotic-free Opti-MEM® (Life Technologies, Grand Island, NY) and 0.5 μL of Lipofectamin L3000 per 0.5 μg of FXR-firefly luciferase plasmid and 10 ng of TK-renilla luciferase plasmid, and the cells were reacted with the reaction mixture for 24 hours. Thereafter, DMEM medium containing 0.1% serum was treated with a drug for 24 hours. After the reaction was completed, the drug-treated culture medium was discarded, and lysis buffer was added at 0.4 ml/well to remove the cells, then the cells were dispensed into a 96-well white plate (SPL Life Science Co.), and the luminescence level was measured using the Dual-glo Luciferase Assay System (Promega, Madison, WI, USA). For the firefly luciferase activity (to see the level of FXR expression) and renilla luciferase activity (to provide a reference value by showing constant expression), the luminescence level was measured using the GloMax Multi Detection System (Promega) and then the relative ratio (firefly luciferase activity/renilla luciferase activity) was calculated.
row,fold induction at 10 µM,Compound
1,0.9,"Cc1onc(-c2ccccc2)c1COc1ccc(/C=C/C(=O)N[C@H](C)C(=O)O)cc1 [KS-054, (E)-(3-(4-((5-methyl-3-phenylisoxazol-4-yl)methoxy)phenyl)acryloyl)-D-alanine]"
2,2.21,"COC(=O)CCNC(=O)/C=C/c1ccc(OCc2c(-c3c(Cl)cccc3Cl)noc2C)cc1 [KS-044, methyl (E)-3-(3-(4-((3-(2,6-dichlorophenyl)-5-methylisoxazol-4-yl)methoxy)phenyl)acrylamido)propanoate]"
3,1.04,"CCOC(=O)[C@H](C)NC(=O)/C=C/c1ccc(OCc2c(-c3ccccc3)noc2C)cc1 [KS-027, ethyl (E)-(3-(4-((5-methyl-3-phenylisoxazol-4-yl)methoxy)phenyl)acryloyl)-L-alaninate]"
4,0.93,"CCOC(=O)[C@@H](NC(=O)/C=C/c1ccc(OCc2c(-c3ccccc3)noc2C)cc1)C(C)C [KS-033, ethyl (E)-(3-(4-((5-methyl-3-phenylisoxazol-4-yl)methoxy)phenyl)acryloyl)-L-valinate]"
5,3.04,"Cc1onc(-c2c(Cl)cccc2Cl)c1COc1ccc(/C=C/C(=O)NCCC(=O)O)cc1 [KS-047, (E)-3-(3-(4-((3-(2,6-dichlorophenyl)-5-methylisoxazol-4-yl)methoxy)phenyl)acrylamido)propanoic acid]"
6,0.82,"Cc1onc(-c2ccccc2)c1COc1ccc(/C=C/C(=O)N[C@@H](C)C(=O)O)cc1 [KS-030, (E)-(3-(4-((5-methyl-3-phenylisoxazol-4-yl)methoxy)phenyl)acryloyl)-L-alanine]"
7,1.34,"COC(=O)[C@@H](C)NC(=O)/C=C/c1ccc(OCc2c(-c3ccccc3)noc2C)cc1 [KS-051, methyl (E)-(3-(4-((5-methyl-3-phenylisoxazol-4-yl)methoxy)phenyl)acryloyl)-D-alaninate]"
8,1.68,"Cc1onc(-c2ccccc2)c1COc1ccc(/C=C/C(=O)NCC(=O)O)cc1 [KS-024, (E)-(3-(4-((5-methyl-3-phenylisoxazol-4-yl)methoxy)phenyl)acryloyl)glycine]"
9,1.2,"COC(=O)CCNC(=O)/C=C/c1ccc(OCc2c(-c3ccccc3)noc2C)cc1 [KS-045, methyl (E)-3-(3-(4-((5-methyl-3-phenylisoxazol-4-yl)methoxy)phenyl)acrylamido)propanoate]"
10,1.13,"Cc1onc(-c2ccccc2)c1COc1ccc(/C=C/C(=O)NCCC(=O)O)cc1 [KS-048, (E)-3-(3-(4-((5-methyl-3-phenylisoxazol-4-yl)methoxy)phenyl)acrylamido)propanoic acid]"
11,1.06,"COC(=O)[C@H](Cc1ccccc1)NC(=O)/C=C/c1ccc(OCc2c(-c3ccccc3)noc2C)cc1 [KS-039, methyl (E)-(3-(4-((5-methyl-3-phenylisoxazol-4-yl)methoxy)phenyl)acryloyl)-L-phenylalaninate]"
12,1.24,"Cc1onc(-c2ccccc2)c1COc1ccc(/C=C/C(=O)N[C@H](C(=O)O)C(C)C)cc1 [KS-036, (E)-(3-(4-((5-methyl-3-phenylisoxazol-4-yl)methoxy)phenyl)acryloyl)-L-valine]"

# Further lines, the compound ahead of its results:
row,Compound,fold induction at 10 µM
1,"Cc1onc(-c2c(Cl)cccc2Cl)c1COc1ccc(/C=C/C(=O)N[C@@H](Cc2ccccc2)C(=O)O)cc1 [KS-041, (E)-(3-(4-((3-(2,6-dichlorophenyl)-5-methylisoxazol-4-yl)methoxy)phenyl)acryloyl)-L-phenylalanine]",3.23
2,"CCOC(=O)CNC(=O)/C=C/c1ccc(OCc2ccc(-c3ccccc3)cc2)cc1 [KS-004, ethyl (E)-(3-(4-([1,1′-biphenyl]-4-ylmethoxy)phenyl)acryloyl)glycinate]",2.03
3,"CC(C)c1onc(-c2c(Cl)cccc2Cl)c1COc1ccc(/C=C/C(=O)N[C@H](C)C(=O)O)cc1 [KS-052, (E)-(3-(4-((3-(2,6-dichlorophenyl)-5-isopropylisoxazol-4-yl)methoxy)phenyl)acryloyl)-D-alanine]",8.12
4,"O=C(O)CNC(=O)/C=C/c1ccc(OCc2ccc(-c3ccccc3)cc2)cc1 [KS-016, (E)-(3-(4-([1,1′-biphenyl]-4-ylmethoxy)phenyl)acryloyl)glycine]",1.99
5,"Cc1onc(-c2c(Cl)cccc2Cl)c1COc1ccc(/C=C/C(=O)N[C@H](C)C(=O)O)cc1 [KS-053, (E)-(3-(4-((3-(2,6-dichlorophenyl)-5-methylisoxazol-4-yl)methoxy)phenyl)acryloyl)-D-alanine]",1.28
6,"CCOC(=O)[C@@H](NC(=O)/C=C/c1ccc(OCc2c(-c3c(Cl)cccc3Cl)noc2C)cc1)C(C)C [KS-032, ethyl (E)-(3-(4-((3-(2,6-dichlorophenyl)-5-methylisoxazol-4-yl)methoxy)phenyl)acryloyl)-L-valinate]",1.89
7,"CCOC(=O)CNC(=O)/C=C/c1ccc(OCc2cccc(OC(F)(F)F)c2)cc1 [KS-007, ethyl (E)-(3-(4-((3-(trifluoromethoxy)benzyl)oxy)phenyl)acryloyl)glycinate]",1.02
8,"COC(=O)[C@H](Cc1ccccc1)NC(=O)/C=C/c1ccc(OCc2c(-c3c(Cl)cccc3Cl)noc2C(C)C)cc1 [KS-037, methyl (E)-(3-(4-((3-(2,6-dichlorophenyl)-5-isopropylisoxazol-4-yl)methoxy)phenyl)acryloyl)-L-phenylalaninate]",7.95
9,"CCOC(=O)CNC(=O)/C=C/c1ccc(OCc2cccc([N+](=O)[O-])c2)cc1 [KS-008, ethyl (E)-(3-(4-((3-nitrobenzyl)oxy)phenyl)acryloyl)glycinate]",1.5
10,"CCOC(=O)CNC(=O)/C=C/c1ccc(OCc2ccc(OC(F)(F)F)cc2)cc1 [KS-003, ethyl (E)-(3-(4-((4-(trifluoromethoxy)benzyl)oxy)phenyl)acryloyl)glycinate]",1.1
11,"O=C(O)CNC(=O)/C=C/c1ccc(OCc2ccccc2)cc1 [KS-014, (E)-(3-(4-(benzyloxy)phenyl)acryloyl)glycine]",1.42
12,"O=C(O)CNC(=O)/C=C/c1ccc(O)cc1 [KS-013, (E)-(3-(4-hydroxyphenyl)acryloyl)glycine]",1.46
13,"Cc1onc(-c2c(Cl)cccc2Cl)c1COc1ccc(/C=C/C(=O)NCC(=O)O)cc1 [KS-023, (E)-(3-(4-((3-(2,6-dichlorophenyl)-5-methylisoxazol-4-yl)methoxy)phenyl)acryloyl)glycine]",1.93
14,"COC(=O)CCNC(=O)/C=C/c1ccc(OCc2c(-c3c(Cl)cccc3Cl)noc2C(C)C)cc1 [KS-043, methyl (E)-3-(3-(4-((3-(2,6-dichlorophenyl)-5-isopropylisoxazol-4-yl)methoxy)phenyl)acrylamido)propanoate]",10
15,"CCOC(=O)[C@H](C)NC(=O)/C=C/c1ccc(OCc2c(-c3c(Cl)cccc3Cl)noc2C(C)C)cc1 [KS-025, ethyl (E)-(3-(4-((3-(2,6-dichlorophenyl)-5-isopropylisoxazol-4-yl)methoxy)phenyl)acryloyl)-L-alaninate]",10.9
16,"O=C(O)CNC(=O)/C=C/c1ccc(OCc2cc(F)c(F)cc2F)cc1 [KS-021, (E)-(3-(4-((2,4,5-trifluorobenzyl)oxy)phenyl)acryloyl)glycine]",2.01
17,"CC(C)c1onc(-c2c(Cl)cccc2Cl)c1COc1ccc(/C=C/C(=O)N[C@@H](Cc2ccccc2)C(=O)O)cc1 [KS-040, (E)-(3-(4-((3-(2,6-dichlorophenyl)-5-isopropylisoxazol-4-yl)methoxy)phenyl)acryloyl)-L-phenylalanine]",9
18,"CCOC(=O)CNC(=O)/C=C/c1ccc(O)cc1 [KS-001, ethyl (E)-(3-(4-hydroxyphenyl)acryloyl)glycinate]",1.22
19,"CCOC(=O)CNC(=O)/C=C/c1ccc(OCc2ccccc2)cc1 [KS-002, ethyl (E)-(3-(4-(benzyloxy)phenyl)acryloyl)glycinate]",1.22

# Same assay, conditions: statement on Table 4 data
row,FXR activating effect compared with GW4064,Compound
1,superior to GW4064,"CC(C)c1onc(-c2c(Cl)cccc2Cl)c1COc1ccc(/C=C/C(=O)N[C@H](C)C(=O)O)cc1 [KS-052, (E)-(3-(4-((3-(2,6-dichlorophenyl)-5-isopropylisoxazol-4-yl)methoxy)phenyl)acryloyl)-D-alanine]"
2,superior to GW4064,"COC(=O)[C@H](Cc1ccccc1)NC(=O)/C=C/c1ccc(OCc2c(-c3c(Cl)cccc3Cl)noc2C(C)C)cc1 [KS-037, methyl (E)-(3-(4-((3-(2,6-dichlorophenyl)-5-isopropylisoxazol-4-yl)methoxy)phenyl)acryloyl)-L-phenylalaninate]"
3,superior to GW4064,"COC(=O)CCNC(=O)/C=C/c1ccc(OCc2c(-c3c(Cl)cccc3Cl)noc2C(C)C)cc1 [KS-043, methyl (E)-3-(3-(4-((3-(2,6-dichlorophenyl)-5-isopropylisoxazol-4-yl)methoxy)phenyl)acrylamido)propanoate]"
4,superior to GW4064,"CCOC(=O)[C@H](C)NC(=O)/C=C/c1ccc(OCc2c(-c3c(Cl)cccc3Cl)noc2C(C)C)cc1 [KS-025, ethyl (E)-(3-(4-((3-(2,6-dichlorophenyl)-5-isopropylisoxazol-4-yl)methoxy)phenyl)acryloyl)-L-alaninate]"
5,superior to GW4064,"CC(C)c1onc(-c2c(Cl)cccc2Cl)c1COc1ccc(/C=C/C(=O)N[C@@H](Cc2ccccc2)C(=O)O)cc1 [KS-040, (E)-(3-(4-((3-(2,6-dichlorophenyl)-5-isopropylisoxazol-4-yl)methoxy)phenyl)acryloyl)-L-phenylalanine]"

# Source: patent US12552755B2, “Cinnamic amide derivative having FXR activating effect, pharmaceutical composition containing the same as active ingredient, and method for preparing the same” (KYUNGSUNG UNIVERSITY INDUSTRY COOPERATION FOUNDATION, priority 2019, dated 2026)
